Results taken from US6809193B2, “Antisense oligonucleotide compositions and methods for the modulation of JNK proteins” (ISIS Pharmaceuticals, Inc., priority 1997, dated 2004).
Strand notation (5' to 3'): a small letter for the sugar, then the base; units joined by * are phosphorothioate-linked, units joined directly phosphodiester-linked; [ ] holds rarer units or linkages, { } end groups; capitals alone tell only the bases. e = 2'-O-(2-methoxyethyl) (MOE); [5mC] = 5-methylcytosine; d = 2'-deoxy (DNA)

Tests used:
JNK1 mRNA = assay: Northern assay, JNK1 mRNA expression in A549 cells; type: cell-based, human; conditions: for RNA % Inhibition: JNK1 mRNA; for dose- and sequence-dependent response on JNK1 mRNA levels: A549 cells, 50, 100, 200 and 400 nM
rat JNK2 mRNA = assay: Northern assay, rat JNK2 (p54a) mRNA in A10 cells; type: cell-based; conditions: for inhibition of rat JNK2 mRNA levels: Table 22
Experimental: (§1) In order to study the role of JNK proteins in animal models, oligonucleotides targeted to the genes encoding JNK1, JNK2 and JNK3 of Rattus norvegicus were prepared. These oligonucleotides are 2′-methoxyethoxy, phosphodiester/2′-hydroxyl, phosphorothioate/2′-methoxyethoxy, phosphodiester “gapmers” in which every cytosine residue is 5-methylcytosine (msc). These antisense compounds were synthesized according to the methods of the disclosure. Certain of these oligonucleotides are additionally specifically hybridizable to JNK genes from other species as indicated herein. The oligonucleotides described in this Example were tested for their ability to modulate rat JNK mRNA levels essentially according to the methods described in the preceding Examples, with the exceptions that the cell line used was rat A10 aortic smooth muscle cells (ATCC No. ATCC CRL-1476) and the probes used were specific for rat JNK1, JNK2 or JNK3 (see infra). A10 cells were grown and treated with oligonucleotides essentially as described by (Cioffi et al. Mol. Pharmacol., 1997, 51, 383).
(§2) These antisense compounds were tested for their ability to modulate levels of p54? (JNK1) and p54a (JNK2) mRNA in A10 cells via Northern assays. Due to the high degree of sequence identity between the human and rat genes, radiolabeled human JNK1 (Example 3) and JNK2 (Example 4) cDNAs functioned as specific probes for the rat homologs.
These antisense compounds were tested for their ability to modulate levels of p54a (JNK2) mRNA in A10 cells using the radiolabeled human JNK2 cDNA as a probe as described supra. Oligonucleotides showing levels of inhibition from≧about 60% to about 100% of rat JNK2 mRNA levels include ISIS Nos. 18254, 18255, 18257, 18258, 18259, 18260 and 18265 (SEQ ID NOS:125, 126, 128, 129, 130, 131 and 136, respectively). These oligonucleotides are preferred embodiments of the invention for modulating rat JNK2 expression. […] These oligonucleotides are thus more preferred embodiments of the invention for modulating rat JNK2 expression. ISIS 18259 (SEQ ID NO:130) was chosen for use in further studies (infra).
(§3) A dose response study was conducted using oligonucleotides targeted to rat JNK1 (ISIS 21859; SEQ ID NO:113) and JNK2 (ISIS 18259; SEQ ID NO:130) and Northern assays.

rat JNK1 mRNA = assay: Northern assay, rat JNK1 (p54?) mRNA in A10 cells; type: cell-based; conditions: for inhibition of rat JNK1 mRNA levels: Table 20
Experimental: as §1, §2, §3

[1] = t = 48 h, 300 nM for initial 20 hours then 200 nM for 4 hours

In the case of “15348 (antisense CTCTCTGTAGGCCCGCTTGG; wingmer, 5' 2'-MOE, phosphorothioate, chemistry not fully specified) [compound 15348]”, the “RNA % Inhibition” value (JNK1 mRNA; [1]) is reported as > 70% and the “RNA % Inhibition” value (JNK1 mRNA; t = 72 h) is reported as > 70%.

“15350 (antisense CTCTCTGTAGGCCCGCTTGG; wingmer, 3' P=O 2'-MOE, chemistry not fully specified) [compound 15350]” was tested, and the “RNA % Inhibition” value (JNK1 mRNA; [1]) was 50.8%.

With “15351 (antisense CTCTCTGTAGGCCCGCTTGG; wingmer, 5' P=O 2'-MOE, chemistry not fully specified) [compound 15351]” the “RNA % Inhibition” value (JNK1 mRNA; [1]) was > 70%.

“18257 (antisense eGeAeTeAeT*d[5mC]*dA*dA*d[5mC]*dA*dT*dT*d[5mC]*dT*d[5mC]*e[5mC]eTeTeGeT) [compound 18257]” was tested, and the “inhibition of rat JNK2 mRNA levels” value (rat JNK2 mRNA; A10 cells) was ≥ 60%.

In the case of “18259 (antisense eGe[5mC]eTe[5mC]eA*dG*dT*dG*dG*dA*d[5mC]*dA*dT*dG*dG*eAeTeGeAeG) [compound 18259]”, the “dose response, levels of mRNA encoding rat JNK2” value (rat JNK2 mRNA; A10 cells, Northern assays) is reported as “specifically modulate”.

In the case of “18260 (antisense eAeTe[5mC]eTeG*d[5mC]*dG*dA*dG*dG*dT*dT*dT*d[5mC]*dA*eTe[5mC]eGeGe[5mC]) [compound 18260]”, the “inhibition of rat JNK2 mRNA levels” value (rat JNK2 mRNA; A10 cells) is reported as ≥ 60%, the “% Inhibition” value (rat JNK2 mRNA; rat JNK2 (p54a) mRNA in A10 cells, control = LIPOFECTIN only = 0%) is reported as 59% and the “% EXPRESSION” value (rat JNK2 mRNA; rat JNK2 (p54a) mRNA in A10 cells, control = LIPOFECTIN only = 100%) is reported as 41%.

“18265 (antisense eTeGeTe[5mC]eA*dG*d[5mC]*dT*d[5mC]*dT*dA*d[5mC]*dA*dT*dT*eAeGeGe[5mC]eA) [compound 18265]” was tested, and the “inhibition of rat JNK2 mRNA levels” value (rat JNK2 mRNA; A10 cells) was ≥ 60%.

For “21858 (antisense CCTGCTCGCGGCTCCGCGTT; 2'-O-methyl wings, phosphorothioate gap, chemistry not fully specified) [compound 21858]”, the “inhibition of rat JNK1 mRNA levels” value (rat JNK1 mRNA) was “at least 90%”.

“21859 (antisense CTCATGATGGCAAGCAATTA; 2'-O-methyl wings, phosphorothioate gap, chemistry not fully specified) [compound 21859]” was tested, and the “dose response, levels of mRNA encoding rat JNK1” value (rat JNK1 mRNA; Northern assays) was “specifically modulate levels of mRNA encoding JNK1” and the “inhibition of rat JNK1 mRNA levels” value (rat JNK1 mRNA) was “at least 90%”.

For “21860 (antisense TGTTGTCACGTTTACTTCTG; 2'-O-methyl wings, phosphorothioate gap, chemistry not fully specified) [compound 21860]”, the “inhibition of rat JNK1 mRNA levels” value (rat JNK1 mRNA) was “at least 90%”.

With “21862 (antisense CTAGGGATTTCTGTGGTGTG; 2'-O-methyl wings, phosphorothioate gap, chemistry not fully specified) [compound 21862]” the “inhibition of rat JNK1 mRNA levels” value (rat JNK1 mRNA) was “at least 90%”.

With “21864 (antisense TCGTTCCTGCAGTCCTTGCC; 2'-O-methyl wings, phosphorothioate gap, chemistry not fully specified) [compound 21864]” the “inhibition of rat JNK1 mRNA levels” value (rat JNK1 mRNA) was “at least 90%”.

In the case of “21865 (antisense CCATTTCTCCCATAATGCAC; 2'-O-methyl wings, phosphorothioate gap, chemistry not fully specified) [compound 21865]”, the “inhibition of rat JNK1 mRNA levels” value (rat JNK1 mRNA) is reported as “at least 90%”.

In the case of “21866 (antisense TGAATTCAGGACAAGGTGTT; 2'-O-methyl wings, phosphorothioate gap, chemistry not fully specified) [compound 21866]”, the “inhibition of rat JNK1 mRNA levels” value (rat JNK1 mRNA) is reported as “at least 90%”.

For “C^sC^sA^sA^sG^sC^sG^sG^sG^sC^sC^sT^sA^sC^sA^sG^sA^sG^sA^sG (sense dC*dC*dA*dA*dG*dC*dG*dG*dG*dC*dC*dT*dA*dC*dA*dG*dA*dG*dA*dG) [ISIS 14320, reference compound]”, the “dose- and sequence-dependent response on JNK1 mRNA levels” value (JNK1 mRNA) was “neither of the control oligonucleotides effect any consistent response”.

“C^sT^sT^sT^sC^sC^sG^sT^sT^sG^sG^sA^sC^sC^sC^sC^sT^sG^sG^sG (dC*dT*dT*dT*dC*dC*dG*dT*dT*dG*dG*dA*dC*dC*dC*dC*dT*dG*dG*dG; further chemistry not given here) [ISIS 14321, reference compound]” was tested, and the “dose- and sequence-dependent response on JNK1 mRNA levels” value (JNK1 mRNA) was “neither of the control oligonucleotides effect any consistent response”.
